According to patent US20050014849A1, “Antifungal phenylethylene” (priority 2001, published 2005):
In brackets after ≈: the same amount, converted by molar mass. Entries after “also recorded” stand apart in the source; their conditions may differ.

Experiments:
[1] = system: C. albicans (ATCC 90028); assay: Frequency of occurrence of spontaneous mutants; format: cell-based, Candida albicans; conditions: four times the broth macrodilution MIC
Protocol: (§1) Determination of the frequency of occurrence of spontaneous mutants was performed as previously described. Overnight cultures of C neoformans (ATCC 90112), C. albicans (ATCC 90028) and Trichosporon inkin (ATCC 18020) were diluted to an OD530 nm=0.3. 0.1 ml of each preparation was spread onto SDA plates containing four or eight times the broth macrodilution MIC of TMPN. The starting inoculum for each organism was also diluted and plated onto drug-free SDA plates for determination of cfu/ml. After a 48 h incubation at the appropriate temperature (see Fungal Strains section above), the number of colonies on drug-supplemented SDA was counted. The frequency of occurrence of spontaneous mutants was calculated by dividing the number of colonies on drug-containing plates by the number of colonies in the inoculum. When no colonies were visualized on drug-containing plates, the calculation was (<) 1 colony divided by the number of colonies in the inoculum.

[2] = system: Trichosporon cutaneum ATCC 28592; assay: Broth macrodilution MIC/MFC; format: cell-based
Protocol: (§2) TMPN was screened against yeasts by the broth macrodilution assay according to the NCCLS [7]. Yeasts were suspended and diluted as recommended to yield final inocula ranging from 0.5-2.5×10^3 cfu/ml. Tests were performed in sterile 12 by 75 mm plastic tubes containing two-fold dilutions of TMPN in 0.165 M morpholinepropanesulfonic acid buffered RPMI 1640 medium (pH 7.0). One tube was again left drug free (but contained an equivalent volume of DMSO) for a turbidity control. Tubes were incubated without agitation at the appropriate temperature (see Fungal Strains section above). MICs were determined after 72 h for Cryptococcus and after 48 h for other yeast genera. The MIC was defined as the lowest concentration of TMPN that inhibited all visible growth of the test organism (optically clear).
(§3) Minimum fungicidal concentrations (MFCs) were determined by subculturing 0.1 ml from each tube with no visible growth in the MIC broth macrodilution series onto the appropriate drug-free plates (see Fungal Strains section above).

[3] = system: C. guilliermondii (9); assay: Broth macrodilution MIC/MFC; format: cell-based, Candida guilliermondii
Protocol: as §2, §3

[4] = system: 132 reference strains and clinical isolates; assay: Broth macrodilution MIC/MFC, all fungi tested (summary); format: cell-based
Protocol: as §2
(§4) Susceptibility testing of filamentous fungi was also conducted. Broth macrodilution susceptibility testing of P. lilacinus, Rhizopus spp. and Aspergillus spp. was performed in accordance with a proposed standardized procedure with slight modification. To induce conidium and sporangiospore formation, fungi were grown on PDA slants at 35° C. for 6 days (P. lilacinus, Rhizopus spp., all Aspergillus species except A. nidulans) or 3 days (A. nidulans). Fungal slants were covered with sterile 0.85% NaCl (P. lilacinus, Rhizopus spp., all Aspergillus species except A. nidulans) or 0.05% Tween 80 (A. nidulans), and suspensions were made by gently probing the colonies with the tip of a sterile Pasteur pipette. The resulting mixture of hyphal fragments and conidia or sporangiospores was withdrawn and transferred to a sterile clear microcentrifuge tube, and heavy particles were allowed to settle for 10 min. The upper homogenous suspension was transferred to a sterile microcentrifuge tube, vortexed for 15 s, adjusted spectrophotometrically, and diluted in sterile 0.165 M MOPS-buffered RPMI medium, pH 7.0, to yield final inocula ranging from 0.5-2.5×10^3 cfu/ml. Susceptibility to TMPN was then determined by broth macrodilution as described above for yeast isolates. MICs were read after 48 h The MIC was defined as the lowest concentration of TMPN that inhibited all visible growth of the test organism (optically clear).
as §3
Possible host effects were also evaluated. Broth macrodilution assays were performed with RPMI medium prepared at pH 5, pH 6, and pH 7, and in RPMI medium with and without 50% normal human serum (Lampire Biological Labs). The pH experiments were performed twice on separate days.

[5] = system: T. mucoides ATCC 90046; assay: Broth macrodilution MIC/MFC; format: cell-based, Trichosporon mucoides
Protocol: as §2, §3

[6] = system: C. krusei (10); assay: Broth macrodilution MIC/MFC; format: cell-based, Candida krusei
Protocol: as §2, §3

[7] = system: A. niger (ASU culture collection); assay: Broth macrodilution MIC/MFC, filamentous fungi; format: cell-based, Aspergillus niger
Protocol: as §4, with “The upper homogenous suspension was transferred to a sterile microcentrifuge tube, vortexed for 15 s, adjusted spectrophotometrically, and diluted in sterile 0.165 M MOPS-buffered RPMI medium, pH 7.0, to yield final inocula ranging from 0.5-2.5×10^3 cfu/ml.” left out, “MICs were read after 48 h The MIC was defined as the lowest concentration of TMPN that inhibited all visible growth of the test organism (optically clear).” left out
as §3

[8] = system: Amphotericin B-resistant C. lusitaniae ATCC 42720; assay: Broth macrodilution MIC/MFC; format: cell-based, Candida lusitaniae
Protocol: as §2, §3

[9] = system: Epidermophyton floccosum ATCC 52066; assay: Broth macrodilution MIC/MFC; format: cell-based
[10] = system: P388 leukemia; assay: Sulforhodamine B cancer cell growth inhibition; format: cell-based, murine; conditions: Mus musculus, 48 h, read-out: GI50 (inhibition of 50% of cell growth)
Protocol: An investigation TMPN's in vitro antineoplastic activity was also conducted. This investigation included an analysis of both cell growth, and of the effects of TMPN upon tubulin. Inhibition of cancer cell growth was assessed using the Sulforhodamine B assay as previously described. Briefly, cells in 5% fetal calf serum/RPMI-1640 were inoculated into 96 well plates, incubated 24 h and 10-fold dilutions of TMPN added. After a 48 h incubation, plates were fixed with trichloroacetic acid, washed, stained with Sulforhodamine B and read with an automated microtiter plate reader.

[11] = system: C. neoformans (ATCC 90112); assay: Frequency of occurrence of spontaneous mutants; format: cell-based, Cryptococcus neoformans; conditions: four times the broth macrodilution MIC
Protocol: as §1

[12] = system: C. uniguttulatus ATCC 34143; assay: Broth macrodilution MIC/MFC; format: cell-based, Cryptococcus uniguttulatus
Protocol: as §2, §3

[13] = system: C. uniguttulatus ATCC 66033; assay: Broth macrodilution MIC/MFC; format: cell-based, Cryptococcus uniguttulatus
Protocol: as §2, §3

[14] = system: C. ater ATCC 14247; assay: Broth macrodilution MIC/MFC; format: cell-based, Cryptococcus ater
Protocol: as §2, §3

[15] = system: C. parapsilosis (10); assay: Broth macrodilution MIC/MFC; format: cell-based, Candida parapsilosis
Protocol: as §2, §3

[16] = system: C. parapsilosis ATCC 22019; assay: Broth macrodilution MIC/MFC; format: cell-based, Candida parapsilosis
Protocol: as §2, §3

[17] = system: C. viswanathii ATCC 22981; assay: Broth macrodilution MIC/MFC; format: cell-based, Candida viswanathii
Protocol: as §2, §3

Structure (SMILES): COc1cc(C=C[N+](=O)[O-])cc(OC)c1OC [TMPN, 1-(3′,4′,5′-trimethoxyphenyl)-2-nitro-ethylene]
- frequency of occurrence of single-step resistant mutants [1]: ≤ 10^−6
- MFC Range [2]: 8 µg/mL (≈ 33.4 µM)
- MIC Range [2]: 4 µg/mL (≈ 16.7 µM)
- MFC Range [3]: >64 µg/mL
- antifungal spectrum in broth macrodilution assays [4]: broad-spectrum antifungal activity
- activity in the presence of serum ([4]; 50% human serum): not active against all species
- fungicidal action ([4]; 132 reference strains and clinical isolates, incl. those resistant to fluconazole, ketoconazole, amphotericin B or flucytosine): fungicidal for the majority
- effect of media pH on activity (MICs and MFCs) ([4]; pH 5, pH 6 and pH 7): unaffected; also recorded: identical or differed by no more than a single 2-fold dilution
- MFC Range [5]: 32 µg/mL (≈ 134 µM)
- MIC Range [5]: 16 µg/mL (≈ 66.9 µM)
- MFC 50% (MFC at which 50% of the strains are killed) ([6]; C. krusei (10)): 32 µg/mL
- MFC 90% (MFC at which 90% of the strains are killed) ([6]; C. krusei (10)): 32 µg/mL
- MFC Range ([6]; C. krusei (10)): 16 to 64 µg/mL
- MIC Range ([6]; C. krusei (10)): 8 to 16 µg/mL
- share of isolates with MFC/MIC ratio <2 ([6]; C. krusei clinical isolates): 70%
- MIC50 ([6]; Pichia kudriavzevii, C. krusei (10), read-out: MIC 50% (MIC at which 50% of the strains are inhibited)): 8 µg/mL (≈ 33.4 µM)
- MIC90 ([6]; Pichia kudriavzevii, C. krusei (10), read-out: MIC 90% (MIC at which 90% of the strains are inhibited)): 16 µg/mL (≈ 66.9 µM)
- MFC Range [7]: 64 µg/mL (≈ 268 µM)
- MIC Range [7]: 16 µg/mL (≈ 66.9 µM)
- MFC Range [8]: 16 µg/mL (≈ 66.9 µM)
- MIC Range [8]: 16 µg/mL (≈ 66.9 µM)
- MIC Range [9]: 2 µg/mL (≈ 8.36 µM)
- GI50 [10]: 4.15 µg/mL (≈ 17.3 µM)
- frequency of occurrence of single-step resistant mutants [11]: ≤ 10^−6
- MFC Range [12]: 16 µg/mL (≈ 66.9 µM)
- MIC Range [12]: 8 µg/mL (≈ 33.4 µM)
- MFC Range [13]: 32 µg/mL (≈ 134 µM)
- MIC Range [13]: 16 µg/mL (≈ 66.9 µM)
- MFC Range [14]: 16 µg/mL (≈ 66.9 µM)
- MIC Range [14]: 8 µg/mL (≈ 33.4 µM)
- MIC Range [15]: 16 to 32 µg/mL
- MFC Range [16]: 32 µg/mL (≈ 134 µM)
- MIC Range [16]: 16 µg/mL (≈ 66.9 µM)
- MFC Range [17]: >64 µg/mL
- MIC Range [17]: 32 µg/mL (≈ 134 µM)
